Biological target: T1, AKT2 (PKB beta) (Homo sapiens, UniProt P31751)
T1 construct: purchased Thermo Fisher Scientific (Life Technologies) SelectScreen
Experiment: SelectScreen Z'LYTE
Format: biochemical
In short: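 SelectScreen broad panel; activity (Z'LYTE, Adapta) plus binding formats. ATP: Km app for CSF1R Z'LYTE; 10 for CAMK1 Adapta. Readout = % per kinase.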

T1 sequence (P31751 whole entry): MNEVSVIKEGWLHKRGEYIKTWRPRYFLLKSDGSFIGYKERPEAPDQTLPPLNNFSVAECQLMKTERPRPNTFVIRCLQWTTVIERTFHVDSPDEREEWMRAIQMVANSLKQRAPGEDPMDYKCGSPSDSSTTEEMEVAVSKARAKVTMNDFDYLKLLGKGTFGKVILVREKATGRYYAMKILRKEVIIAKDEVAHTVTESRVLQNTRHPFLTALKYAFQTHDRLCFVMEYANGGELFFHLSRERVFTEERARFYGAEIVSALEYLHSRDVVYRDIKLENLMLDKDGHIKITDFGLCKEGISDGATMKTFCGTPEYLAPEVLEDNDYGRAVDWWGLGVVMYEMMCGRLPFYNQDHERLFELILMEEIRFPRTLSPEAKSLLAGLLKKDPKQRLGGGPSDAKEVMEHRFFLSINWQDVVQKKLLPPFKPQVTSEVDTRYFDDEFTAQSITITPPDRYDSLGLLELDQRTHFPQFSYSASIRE

CN(C(=O)CN1CCOCC1)c1ccc2sc3c(-c4cccc5c(=O)cc(N6CC7CCC(C6)O7)oc45)cccc3c2c1 [NU5455]
inhibition at 1 µM: 0%
